Measured values from patent publication US5468756A, “Imidazonaphthyridine derivatives” (Kyowa Hakko Kogyo Co., Ltd., priority 1990, dated 1995).
pIC50: −log10 of the molar value.

Experiments:
[1] = test system: carrageenin-induced paw edema; assay: Effect on carrageenin-induced paw edema; assay type: in vivo, male Wistar rats; conditions: Rattus norvegicus, 3 hours after carrageenin, read-out: Suppression rate for paw swelling, carrageenin-induced edema; for inhibition in vivo at 100 mg/kg: p.o.; for inhibition in vivo at 50 mg/kg: po, 50 mg/kg P.O.
Experimental: a) Effect on carrageenin-induced paw edema
(§1) Male Wistar rats weighing 150 to 160 g (n=3-5) were used in the experiment. After the right hind paw volume was measured with the plethysmograph (TK-101; Unicom Co., Ltd.), the test compound (25, 50 or 100 mg/kg) was orally administered. After one hour, 0.1 ml of 1% carrageenin (λ-carrageenin; PICNIN-A®, Zushi Kagaku Co., Ltd.) was subcutaneously injected into the right hind paw footpad. Three hours after the injection of carrageenin, the right hind paw volume was measured and the swelling rate was determined by the following equation 1. [formula] Vt: the right hind paw volume measured 3 hours after the injection of carrageenin
(§2) Vo: the right hind paw volume measured prior to the injection of carrageenin
(§3) The suppression rate was calculated by the following equation 2. [formula] Swt: the swelling rate of the group administered with the test compound Swc: the swelling rate of the control group administered with physiological saline solution

[2] = test system: passive Schultz-Dale reaction; assay: Effect on passive Schultz-Dale reaction (broncho-dilative activity), sensitized tracheal strips contracted by antigen; design: species or system male Hartley guinea pigs; conditions: guinea pig tracheal zig-zag strips, 37° C., antigen egg white albumin 1 μg/ml; read-out: Passive Schultz-Dale reaction IC50 (concentration of 50% relaxation rate)
Experimental: d) Effect on passive Schultz-Dale reaction (broncho-dilative activity)
Male Hartley guinea pigs weighing 350 to 500 g were passively sensitized by intraperitoneal injection of rabbit anti-OA serum prepared in advance by the method of Koda et al. [Folia Pharmacol., Japon 66, 237, (1970)]. After 24 hours, the guinea pigs were stunned and exsanguinated, and then tracheae were removed. The zig-zag strips of the tracheae were prepared by the method of Emmerson and Mackay [J. Pharm. Pharmacol., 31, 798, (1979)]. The strips were suspended in Krebs-Henseleit solution at 37° C. under aeration of a mixed gas of 95% oxygen and 5% carbon dioxide, and equilibrated for one hour. Then, antigen (egg white albumin) was introduced in the solution (final concentration; 1 μg/ml), and the contraction was measured by isotonictransducer (TD-112s, made by Nihon Kohden K.K., Japan) and recorded on a recorder (Type 3066, made by Yokogawa-Hokushin Denki, K.K. Japan). After the contraction curves reached a plateau, the test compounds were successively added in order to get cumulative concentration-relaxation curves. The concentration of 50% relaxation rate (IC50) was calculated from the regression line, which was obtained from the cumulative concentration-relaxation curves.

[3] = test system: zymosan-induced paw edema; assay: Effect on zymosan-induced paw edema; assay type: in vivo, male Wistar rats; conditions: Rattus norvegicus, po, read-out: Suppression rate for paw swelling, zymosan-induced edema; for inhibition in vivo at 25 mg/kg: 25 mg/kg P.O.
Experimental: as §1, §2, §3
b) Effect on zymosan-induced paw edema
The experiment was carried out in the same manner as in the carrageenin-induced paw edema test except that 1% zymosan (Zymosan A®; Sigma Chemical Co.) was used in place of 1% carrageenin and the right hind paw volume was measured […] the injection of the edema-inducing substance instead of 3 hours. The swelling rate and the suppression rate were calculated by equation 1 and equation 2, respectively.

ddY strain male mice = assay: Acute toxicity (Minimum Lethal Dose); assay type: in vivo
Experimental: The test compound was orally and intraperitoneally administered to ddY strain male mice weighing 20 to 25 g. MLD (Minimum Lethal Dose) was determined by observing the mortality for […] after the administration.

[4] = test system: platelet activating factor (PAF)-induced mortality; assay: Inhibition effect on platelet activating factor (PAF)-induced mortality; assay type: in vivo, male dd mice; conditions: Mus musculus, po, PAF 40 μg/kg i.v., 3 h, read-out: Survival rate of test compound-administered group; for responders at 100 mg/kg: n = 10, control group survival 0-20%
Experimental: e) Inhibition effect on platelet activating factor (PAF)-induced mortality
The experiment was carried out by a minor modification of a known method [Br. J. Pharmacol., 79, 595 (1983)]. Groups each consisting of 10 male dd mice (weighing 28 to 32 g) were used, and 50 or 100 mg/kg of the test compound or a saline (control) was orally administered. One hour after the administration of test compound, 40 μg/kg of PAF (manufactured by Avanti Polar Lipids Co., Ltd.) was intravenously administered. Three hours after PAF injection, the mortality of the animals was observed.

Compound	inhibition in vivo at 100 mg/kg [1]	pIC50 [2]	inhibition in vivo at 100 mg/kg [3]	MLD (Minimum Lethal Dose) i.p. (ddY strain male mice)	MLD (Minimum Lethal Dose) p.o. (ddY strain male mice)	responders at 100 mg/kg [4]	inhibition in vivo at 25 mg/kg [3]	inhibition in vivo at 50 mg/kg [1]	responders at 50 mg/kg ([4]; 50 mg/kg p.o., n = 10, control group survival 0%)
CCn1cnc2c3cccnc3n(-c3ccccc3)c(=O)c21 [Compound 8, 3-Ethyl-5-phenyl-3H-imidazo[4,5-c][1,8]naphthyridin-4(5H)-one]	56.1%	6.35	64.9%	> 50 mg/kg	> 50 mg/kg	70%	–	–	–
CCCn1cnc2c3cccnc3n(-c3ccccc3)c(=O)c21 [Compound 9, 5-Phenyl-3-n-propyl-3H-imidazo[4,5-c][1,8]naphthyridin-4(5H)-one]	52.4%	5.19	–	> 100 mg/kg	> 100 mg/kg	100%	61.2%	–	–
CC(C)n1cnc2c3cccnc3n(-c3ccccc3)c(=O)c21 [Compound 10, 3-Isopropyl-5-phenyl-3H-imidazo[4,5-c][1,8]naphthyridin-4(5H)-one]	43.1%	5.22	53%	> 100 mg/kg	> 100 mg/kg	80%	–	–	–
CCCCn1cnc2c3cccnc3n(-c3ccccc3)c(=O)c21 [Compound 11, 3-n-Butyl-5-phenyl-3H-imidazo[4,5-c][1,8]naphthyridin-4(5H)-one]	56.4%	< 5.00	–	> 100 mg/kg	> 200 mg/kg	100%	55.5%	–	–
CC(C)Cn1cnc2c3cccnc3n(-c3ccccc3)c(=O)c21 [Compound 12, 3-Isobutyl-5-phenyl-3H-imidazo[4,5-c][1,8]naphthyridin-4(5H)-one]	48.5%	5.07	–	> 50 mg/kg	> 200 mg/kg	100%	69.7%	–	–
O=c1c2c(ncn2Cc2ccccc2)c2cccnc2n1-c1ccccc1 [Compound 13, 3-Benzyl-5-phenyl-3H-imidazo[4,5-c][1,8]naphthyridin-4(5H)-one]	58.1%	5.89	65.1%	> 100 mg/kg	> 300 mg/kg	90%	–	–	–
CC(=O)Cn1cnc2c3cccnc3n(-c3ccccc3)c(=O)c21 [Compound 14, 3-(2-Oxopropyl)-5-phenyl-3H-imidazo[4,5-c][1,8]naphthyridin-4(5H)-one]	44%	5.24	–	> 100 mg/kg	> 100 mg/kg	100%	53.7%	–	–
O=c1c2c(ncn2CCc2ccccc2)c2cccnc2n1-c1ccccc1 [Compound 15, 3-Phenethyl-5-phenyl-3H-imidazo[4,5-c][1,8]naphthyridin-4(5H)-one]	5.2%	5.09	–	> 100 mg/kg	> 300 mg/kg	50%	25.7%	–	–
Cc1nc2c([nH]1)c(=O)n(-c1ccccc1)c1ncccc21 [Compound 18, 2-Methyl-5-phenyl-3H-imidazo[4,5-c][1,8]naphthyridin-4(5H)-one]	23.7%	< 5.00	–	–	–	90%	26.7%	–	–
COc1ccc(-n2c(=O)c3[nH]cnc3c3cccnc32)cc1 [Compound 22, 5-(4-Methoxy)phenyl-3H-imidazo[4,5-c][1,8]naphthyridin-4(5H)-one]	1.9%	< 5.00	0%	–	–	30%	–	–	–
COc1cccc(-n2c(=O)c3[nH]cnc3c3cccnc32)c1 [Compound 23, 5-(3-Methoxy)phenyl-3H-imidazo[4,5-c][1,8]naphthyridin-4(5H)-one]	0%	< 5.00	–	–	–	10%	18.1%	–	–
CCCCn1c(=O)c2c(ncn2C)c2cccnc21 [Compound 28, 5-n-Butyl-3-methyl-3H-imidazo[4,5-c][1,8]naphthyridin-4(5H)-one]	20.6%	5.35	–	–	–	70%	26.7%	–	–
CCCCn1c(=O)c2c(ncn2CCC)c2cccnc21 [Compound 29, 5-n-Butyl-3-n-propyl-3H-imidazo[4,5-c][1,8]naphthyridin-4(5H)-one]	56.1%	6.54	–	> 100 mg/kg	> 100 mg/kg	100%	21.1%	–	–
O=c1c2c(ncn2CC2CCCCC2)c2cccnc2n1-c1ccccc1 [Compound 37, 3-Cyclohexylmethyl-5-phenyl-3H-imidazo[4,5-c][1,8]naphthyridin-4(5H)-one]	–	5.21	–	–	–	90%	49.8%	34.7%	–
Cc1cccc(Cn2cnc3c4cccnc4n(-c4ccccc4)c(=O)c32)c1 [Compound 41, 3-(3-Methylphenyl)methyl-5-phenyl-3H-imidazo[4,5-c][1,8]naphthyridin-4(5H)-one]	47.7%	5.00	–	–	–	–	33.3%	–	80%
Cc1ccc(Cn2cnc3c4cccnc4n(-c4ccccc4)c(=O)c32)cc1 [Compound 43, 3-(4-Methylphenyl)methyl-5-phenyl-3H-imidazo[4,5-c][1,8]naphthyridin-4(5H)-one]	39.2%	–	–	> 100 mg/kg	> 300 mg/kg	70%	56.2%	–	–
O=c1c2c(ncn2Cc2cccc([N+](=O)[O-])c2)c2cccnc2n1-c1ccccc1 [Compound 47, 3-(3-Nitrophenyl)methyl-5-phenyl-3H-imidazo[4,5-c][1,8]naphthyridin-4(5H)-one]	33.1%	–	–	> 100 mg/kg	> 300 mg/kg	0%	35.7%	–	–
Cc1cccc(-n2c(=O)c3c(ncn3Cc3ccccc3)c3cccnc32)c1 [Compound 58, 5-(3-Methylphenyl)-3-benzyl-3H-imidazo[4,5-c][1,8]naphthyridin-4(5H)-one]	–	–	–	> 100 mg/kg	> 300 mg/kg	100%	47%	36.3%	–
O=c1c2c(ncn2Cc2ccccc2)c2cccnc2n1-c1cccc(Cl)c1 [Compound 59, 5-(3-Chlorophenyl)-3-benzyl-3H-imidazo[4,5-c][1,8]naphthyridin-4(5H)-one]	–	–	–	> 100 mg/kg	> 300 mg/kg	70%	47.9%	36.4%	–
